Assay results: PubChem BioAssay (NCI)
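Results reflect a 48-hour exposure of cells in 96-well plates to compound at five concentrations. Definition used: TGI = concentration required for complete inhibition of growth.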

Assays:
Assay in all cases: NCI-60 cell line screen, 48 h
786-0 renal = system: 786-0 renal
A498 renal = system: A498 renal
A549 NSCLC = system: A549 NSCLC
ACHN renal = system: ACHN renal
CAKI-1 renal = system: CAKI-1 renal
CCRF-CEM leukemia = system: CCRF-CEM leukemia
COLO 205 colon = system: COLO 205 colon
DLD-1 colon = system: DLD-1 colon
DMS 114 small cell lung = system: DMS 114 small cell lung
DMS 273 small cell lung = system: DMS 273 small cell lung
EKVX NSCLC = system: EKVX NSCLC
HCC-2998 colon = system: HCC-2998 colon
HCT-116 colon = system: HCT-116 colon
HCT-15 colon = system: HCT-15 colon
HL-60(TB) leukemia = system: HL-60(TB) leukemia
HOP-18 NSCLC = system: HOP-18 NSCLC
HOP-62 NSCLC = system: HOP-62 NSCLC
HOP-92 NSCLC = system: HOP-92 NSCLC
HT29 colon = system: HT29 colon
IGROV1 ovarian = system: IGROV1 ovarian
K-562 leukemia = system: K-562 leukemia
KM12 colon = system: KM12 colon
KM20L2 colon = system: KM20L2 colon
LOX IMVI melanoma = system: LOX IMVI melanoma
LXFL 529 NSCLC = system: LXFL 529 NSCLC
M14 melanoma = system: M14 melanoma
M19-MEL melanoma = system: M19-MEL melanoma
MALME-3M melanoma = system: MALME-3M melanoma
MOLT-4 leukemia = system: MOLT-4 leukemia
NCI-H226 lung = system: NCI-H226 lung
NCI-H23 lung = system: NCI-H23 lung
NCI-H460 lung = system: NCI-H460 lung
NCI-H522 lung = system: NCI-H522 lung
OVCAR-3 ovarian = system: OVCAR-3 ovarian
OVCAR-4 ovarian = system: OVCAR-4 ovarian
OVCAR-5 ovarian = system: OVCAR-5 ovarian
OVCAR-8 ovarian = system: OVCAR-8 ovarian
RPMI-8226 leukemia = system: RPMI-8226 leukemia
RXF 393 renal = system: RXF 393 renal
RXF-631 renal = system: RXF-631 renal
SF-268 CNS = system: SF-268 CNS
SF-295 CNS = system: SF-295 CNS
SF-539 CNS = system: SF-539 CNS
SK-MEL-2 melanoma = system: SK-MEL-2 melanoma
SK-MEL-28 melanoma = system: SK-MEL-28 melanoma
SK-MEL-5 melanoma = system: SK-MEL-5 melanoma
SK-OV-3 ovarian = system: SK-OV-3 ovarian
SN12C renal = system: SN12C renal
SNB-19 CNS = system: SNB-19 CNS
SNB-75 CNS = system: SNB-75 CNS
SNB-78 CNS = system: SNB-78 CNS
SR leukemia = system: SR leukemia
TK-10 renal = system: TK-10 renal
U251 CNS = system: U251 CNS
UACC-257 melanoma = system: UACC-257 melanoma
UACC-62 melanoma = system: UACC-62 melanoma
UO-31 renal = system: UO-31 renal
XF 498 CNS = system: XF 498 CNS

CCOC(OC1=CCCC1)C(C)[Se]c1ccccc1 (stereo not drawn)
TGI (786-0 renal): 41.8 µM
TGI (A498 renal): > 100 µM
TGI (A549 NSCLC): > 100 µM
TGI (ACHN renal): > 100 µM
TGI (CAKI-1 renal): > 100 µM
TGI (CCRF-CEM leukemia): 46.6 µM
TGI (COLO 205 colon): 39.9 µM
TGI (DLD-1 colon): 48.4 µM
TGI (DMS 114 small cell lung): 20.4 µM
TGI (DMS 273 small cell lung): 31.3 µM
TGI (EKVX NSCLC): > 100 µM
TGI (HCC-2998 colon): > 100 µM
TGI (HCT-116 colon): 45.1 µM
TGI (HCT-15 colon): 32 µM
TGI (HL-60(TB) leukemia): 42.9 µM
TGI (HOP-18 NSCLC): > 100 µM
TGI (HOP-62 NSCLC): > 100 µM
TGI (HOP-92 NSCLC): 81.4 µM
TGI (HT29 colon): 44.4 µM
TGI (IGROV1 ovarian): > 100 µM
TGI (K-562 leukemia): > 100 µM
TGI (KM12 colon): > 100 µM
TGI (KM20L2 colon): 79.6 µM
TGI (LOX IMVI melanoma): 28.9 µM
TGI (LXFL 529 NSCLC): > 100 µM
TGI (M14 melanoma): > 100 µM
TGI (M19-MEL melanoma): 66.3 µM
TGI (MALME-3M melanoma): 88.4 µM
TGI (MOLT-4 leukemia): 64.6 µM
TGI (NCI-H226 lung): > 100 µM
TGI (NCI-H23 lung): 62.3 µM
TGI (NCI-H460 lung): 40.1 µM
TGI (NCI-H522 lung): 35.9 µM
TGI (OVCAR-3 ovarian): > 100 µM
TGI (OVCAR-4 ovarian): > 100 µM
TGI (OVCAR-5 ovarian): 60.6 µM
TGI (OVCAR-8 ovarian): > 100 µM
TGI (RPMI-8226 leukemia): 43.7 µM
TGI (RXF 393 renal): 72.8 µM
TGI (RXF-631 renal): 41.4 µM
TGI (SF-268 CNS): 59 µM
TGI (SF-295 CNS): > 100 µM
TGI (SF-539 CNS): 71.7 µM
TGI (SK-MEL-2 melanoma): > 100 µM
TGI (SK-MEL-28 melanoma): > 100 µM
TGI (SK-MEL-5 melanoma): 52.4 µM
TGI (SK-OV-3 ovarian): > 100 µM
TGI (SN12C renal): > 100 µM
TGI (SNB-19 CNS): > 100 µM
TGI (SNB-75 CNS): 90.4 µM
TGI (SNB-78 CNS): > 100 µM
TGI (SR leukemia): 41.2 µM
TGI (TK-10 renal): > 100 µM
TGI (U251 CNS): 83 µM
TGI (UACC-257 melanoma): > 100 µM
TGI (UACC-62 melanoma): > 100 µM
TGI (UO-31 renal): > 100 µM
TGI (XF 498 CNS): 45.1 µM
